In ChEMBL document CHEMBL1139787, “Synthetic tyrosyl gallate derivatives as potent melanin formation inhibitors” (Bioorg Med Chem Lett, 2007) one finds IC50 data, which are given here for six compounds.

The term IC50 denotes the concentration that inhibits the measured activity by half. High values mean lower potency, low ones higher potency.

The structures appear in SMILES notation. A value given as a limit tells only on which side of the number the result lay.

The nature of assay [1]: Cytotoxicity againt Melan-a cells by MTT assay. Format: cell-based. The conditions noted are these: Mus musculus. In general terms: Tetrazolium assays rely on reduction of a dye to a coloured formazan, in cell work by metabolically active cells.
The nature of assay [2]: Inhibition of melanin formation in Melan-a cells after 5 days. Format: functional, cell-based. The conditions noted are these: 120 h.
Assay [3] is described as follows: DPPH radical scavenging activity after 30 mins. Format: functional. Background: The DPPH test is a chemical assay of radical scavenging.
Assay [4] deals with Tyrosinase (Mus musculus) (UniProt P11344). Kind of assay: Inhibition of tyrosinase in Melan-a cells.
Chain of Tyrosinase (Mus musculus) (P11344 whole entry, looked up): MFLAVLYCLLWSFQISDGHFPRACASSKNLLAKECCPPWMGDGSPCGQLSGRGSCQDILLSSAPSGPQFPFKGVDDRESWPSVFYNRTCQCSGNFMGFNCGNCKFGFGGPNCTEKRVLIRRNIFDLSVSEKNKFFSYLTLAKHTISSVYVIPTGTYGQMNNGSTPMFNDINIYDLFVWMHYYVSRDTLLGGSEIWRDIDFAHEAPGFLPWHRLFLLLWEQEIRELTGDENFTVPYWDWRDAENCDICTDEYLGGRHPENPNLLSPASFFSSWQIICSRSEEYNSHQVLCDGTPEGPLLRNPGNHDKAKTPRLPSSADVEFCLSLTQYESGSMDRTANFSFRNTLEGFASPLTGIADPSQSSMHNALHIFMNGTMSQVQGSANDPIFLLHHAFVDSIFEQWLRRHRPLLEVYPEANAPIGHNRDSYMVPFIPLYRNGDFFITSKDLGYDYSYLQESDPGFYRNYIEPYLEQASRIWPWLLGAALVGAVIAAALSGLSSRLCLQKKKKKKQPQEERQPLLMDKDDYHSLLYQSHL

Regarding `O=C(OCCc1cccc(O)c1)c1cc(O)c(O)c(O)c1`, the IC50 in assay [1] is above 50 µM; in assay [2], 8.94 µM; in assay [3], 7.78 µM; in assay [4], 15.2 µM.
For `O=C(OCCc1ccc(O)cc1)c1cc(O)c(O)c(O)c1`, the IC50 was above 10 µM in assay [1], 7.52 µM in assay [3] and 4.93 µM in assay [4].
With `O=C1O[C@H]([C@@H](O)CO)C(O)=C1O` [ASCORBIC ACID], the IC50 in assay [3] was determined as 13.6 µM.
As to `OC[C@H]1O[C@@H](Oc2ccc(O)cc2)[C@H](O)[C@@H](O)[C@@H]1O` [ARBUTIN], the IC50 is above 1500 µM in assay [1] and 118 µM in assay [2].
As to `O=C(OCCc1ccccc1O)c1cc(O)c(O)c(O)c1`, the IC50 is above 50 µM in assay [1], 13.7 µM in assay [2], 8.31 µM in assay [3] and 14.5 µM in assay [4].
`Cc1c(C)c2c(c(C)c1O)CC[C@@](C)(CCCC(C)CCCC(C)CCCC(C)C)O2` (single isomer, unassigned) [ALPHA-TOCOPHEROL] yielded an IC50 in assay [3] of 9.89 µM. This lies in the single-digit micromolar range.
